Experimental data reported in patent publication US5698538A, “Boronic acid and ester inhibitors of thrombin” (The DuPont Merck Pharmaceutical Company, priority 1996, dated 1997).

Columns and labels:
Format in all cases: biochemical
human thrombin = target: T1, human thrombin (Homo sapiens, UniProt P00734); assay: Inhibition of human thrombin (chromogenic substrate S2238), inhibitory constant Ki; details: 0.2-0.5 nM human thrombin, S2238, pH 7.5, 30 minutes; read-out: Ki values for inhibition of Serine Proteases: Thrombin
T1 construct: purchased Enzyme Research Laboratories, South Bend, Ind
Protocol: (§1) The effectiveness of compounds of the present invention as inhibitors of blood coagulation proteases was determined using purified human proteases and synthetic substrates following procedures similar to those described in Kettner et al. (1990).
(§2) For these assays, the rate of enzymatic (thrombin, Factor Xa, and Factor VIIa) hydrolysis of chromogenic substrates (S2238 (H-D-Phe-Pip-Arg-pNA), S2222, and S2288, respectively; Kabi Pharmacia, Franklin, Ohio.) was measured both in the absence and presence of compounds of the present invention. […] A decrease in the rate of absorbance change at 405 nm in the presence of inhibitor is indicative of enzyme inhibition. The results of this assay are expressed as inhibitory constant, Ki.
(§3) Thrombin and Xa determinations were made in 0.10M sodium phosphate buffer, pH 7.5, containing 0.20M NaCl, and 0.5% PEG 8000. VIIa determinations were made in 0.05M tris buffer, pH 7.6, containing 0.10M NaCl, 4 mM CaCl2, and 0.1% bovine serum albumin. The Michaelis constant, Km, for substrate hydrolysis was determined at 5° C. using the method of Lineweaver and Burk.
(§4) Values of Ki were determined by allowing 0.2-0.5 nM human thrombin or human factor Xa (Enzyme Research Laboratories, South Bend, Ind.), or 50 nM human factor VIIa (BiosPacific, Emeryville, Calif.) react with the substrate (0.20 mM-1 mM) in the presence of inhibitor. Reactions were allowed to go for 30 minutes and the velocities (rate of absorbance change vs time) were measured in the time frame of 25-30 minutes. The following relationship was used to calculate Ki values. [formula] where: vo is the velocity of the control in the absence of inhibitor;
(§5) vs is the velocity in the presence of inhibitor;
(§6) I is the concentration of inhibitor;
(§7) Ki is the dissociation constant of the enzyme: inhibitor complex;
(§8) S is the concentration of substrate;
(§9) Km is the Michaelis constant.

human factor Xa = target: T2, human factor Xa (Homo sapiens, UniProt P00742); assay: Inhibition of human factor Xa (chromogenic substrate S2222), inhibitory constant Ki; details: S2222, pH 7.5, 30 minutes, read-out: Ki values for inhibition of Serine Proteases: Factor Xa
T2 construct: purchased Enzyme Research Laboratories, South Bend, Ind
T2 sequence (P00742 235-488 limits assumed): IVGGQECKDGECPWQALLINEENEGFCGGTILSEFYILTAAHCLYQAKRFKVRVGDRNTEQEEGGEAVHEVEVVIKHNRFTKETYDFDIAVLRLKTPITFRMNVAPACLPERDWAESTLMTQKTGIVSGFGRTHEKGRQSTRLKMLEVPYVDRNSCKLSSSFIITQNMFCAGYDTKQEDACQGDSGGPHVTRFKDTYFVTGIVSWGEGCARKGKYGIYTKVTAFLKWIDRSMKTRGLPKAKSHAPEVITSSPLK
T2 sequence (P00742 41-179 partner limits assumed): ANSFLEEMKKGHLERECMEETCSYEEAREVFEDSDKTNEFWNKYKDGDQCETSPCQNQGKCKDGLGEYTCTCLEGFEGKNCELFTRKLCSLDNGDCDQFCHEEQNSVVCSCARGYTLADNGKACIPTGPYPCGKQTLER
Protocol: as §1, §2, §3, §4, §5, §6, §7, §8, §9

human factor VIIa = target: T3, human factor VIIa (Homo sapiens, UniProt P08709); assay: Inhibition of human factor VIIa (chromogenic substrate S2288), inhibitory constant Ki; details: 50 nM human factor VIIa, S2288, pH 7.6, 4 mM CaCl2, 30 minutes; read-out: Ki values for inhibition of Serine Proteases: Factor VIIa
T3 construct: Factor VIIa in the extrinsic pathway; purchased BiosPacific, Emeryville, Calif
T3 sequence (P08709 213-466 limits assumed): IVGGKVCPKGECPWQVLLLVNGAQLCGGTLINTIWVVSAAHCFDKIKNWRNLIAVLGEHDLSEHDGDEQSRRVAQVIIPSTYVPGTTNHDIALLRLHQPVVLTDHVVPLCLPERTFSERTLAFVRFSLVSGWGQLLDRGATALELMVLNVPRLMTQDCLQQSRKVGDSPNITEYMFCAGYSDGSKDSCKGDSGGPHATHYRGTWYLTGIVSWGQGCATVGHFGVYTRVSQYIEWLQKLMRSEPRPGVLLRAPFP
T3 sequence (P08709 61-212 partner limits assumed): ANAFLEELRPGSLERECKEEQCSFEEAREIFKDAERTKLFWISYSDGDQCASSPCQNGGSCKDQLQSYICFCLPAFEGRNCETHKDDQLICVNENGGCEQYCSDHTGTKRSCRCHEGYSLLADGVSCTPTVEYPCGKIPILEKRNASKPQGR
Protocol: as §1, §2, §3, §4, §5, §6, §7, §8, §9

Ki (human thrombin) | Ki (human factor Xa) | Ki (human factor VIIa) | Structure (SMILES)
< 500 nM | 500 to 50000 nM | < 500 nM | CC1(C)C2CC3OB([C@H](CCCNC(=N)N)NC(=O)Cn4nc(Cc5ccccc5)nc4Cc4ccccc4)OC3(C)C1C2 (single isomer, unassigned) [Example 967]
< 500 nM | 500 to 50000 nM | 500 to 50000 nM | CC1(C)C2CC3OB([C@H](CCCNC(=N)N)NC(=O)Cn4nc(-c5cccc([N+](=O)[O-])c5)nc4Cc4ccccc4)OC3(C)C1C2 (single isomer, unassigned) [Example 969]
< 500 nM | 500 to 50000 nM | – | COCCC[C@H](NC(=O)Cn1nc(CC#N)nc1Cc1ccccc1)B1OC2CC3CC(C3(C)C)C2(C)O1 (single isomer, unassigned) [Example 1352]
< 500 nM | – | – | CC1(C)C2CC3OB([C@H](CCCCN)NC(=O)Cn4ncnc4CCc4ccccc4)OC3(C)C1C2 (single isomer, unassigned) [Example 1431]
< 50000 nM | 500 to 50000 nM | 500 to 50000 nM | CC1(C)C2CC3OB([C@H](CCCCN)NC(=O)Cn4nc(CO)nc4CCc4ccccc4)OC3(C)C1C2 (single isomer, unassigned) [Example 1459]
< 500 nM | – | 500 to 50000 nM | CC1(C)C2CC3OB([C@H](CCCCN)NC(=O)Cn4nc(CCc5ccccc5)nc4CCc4ccccc4)OC3(C)C1C2 (single isomer, unassigned) [Example 1467]
< 500 nM | – | – | CC1(C)C2CC3OB([C@H](CCCCN)NC(=O)Cn4nc(Cc5nn[nH]n5)nc4Cc4ccccc4)OC3(C)C1C2 (single isomer, unassigned) [Example 2067]
< 50000 nM | 500 to 50000 nM | 500 to 50000 nM | CC1(C)C2CC3OB([C@H](CCCCN)NC(=O)Cn4nc(COCc5ccccc5)nc4CCc4ccccc4)OC3(C)C1C2 (single isomer, unassigned) [Example 2068]
< 500 nM | 500 to 50000 nM | 500 to 50000 nM | CC1(C)C2CC3OB([C@H](CCCCN)NC(=O)Cn4cnc(-c5ccccc5)n4)OC3(C)C1C2 (single isomer, unassigned) [Example 2073]
< 500 nM | 500 to 50000 nM | 500 to 50000 nM | Cc1nc(-c2ccccc2)nn1CC(=O)N[C@@H](CCCCN)B1OC2CC3CC(C3(C)C)C2(C)O1 (single isomer, unassigned) [Example 2074]
< 500 nM | – | – | CC1(C)C2CC3OB([C@H](CCCCN)NC(=O)Cn4cnc(Cc5ccccc5)n4)OC3(C)C1C2 (single isomer, unassigned) [Example 2411]
< 500 nM | 500 to 50000 nM | 500 to 50000 nM | Cc1nc(Cc2ccccc2)nn1CC(=O)N[C@@H](CCCCN)B1OC2CC3CC(C3(C)C)C2(C)O1 (single isomer, unassigned) [Example 2412]
< 500 nM | 500 to 50000 nM | 500 to 50000 nM | CCCc1nc(Cc2ccccc2)nn1CC(=O)N[C@@H](CCCCN)B1OC2CC3CC(C3(C)C)C2(C)O1 (single isomer, unassigned) [Example 2414]
< 500 nM | 500 to 50000 nM | 500 to 50000 nM | CSCc1nc(Cc2ccccc2)nn1CC(=O)N[C@@H](CCCCN)B1OC2CC3CC(C3(C)C)C2(C)O1 (single isomer, unassigned) [Example 2416]
< 500 nM | 500 to 50000 nM | 500 to 50000 nM | CC1(C)C2CC3OB([C@H](CCCCN)NC(=O)Cn4nc(Cc5ccccc5)nc4CC#N)OC3(C)C1C2 (single isomer, unassigned) [Example 2422]
< 50000 nM | 500 to 50000 nM | > 500000 nM | CC1(C)C2CC3OB([C@H](CCCCN)NC(=O)Cn4nc(Cc5ccccc5)nc4CC(=O)O)OC3(C)C1C2 (single isomer, unassigned) [Example 2430]
< 500 nM | 500 to 50000 nM | 500 to 50000 nM | CC1(C)C2CC3OB([C@H](CCCCN)NC(=O)Cn4nc(Cc5ccccc5)nc4CO)OC3(C)C1C2 (single isomer, unassigned) [Example 2439]
< 500 nM | 500 to 50000 nM | 500 to 50000 nM | CC1(C)C2CC3OB([C@H](CCCCN)NC(=O)Cn4nc(Cc5ccccc5)nc4COCc4ccccc4)OC3(C)C1C2 (single isomer, unassigned) [Example 2440]
< 500 nM | 500 to 50000 nM | < 500 nM | CC1(C)C2CC3OB([C@H](CCCNC(=N)N)NC(=O)Cn4nc(Cc5ccccc5)nc4-c4ccccc4)OC3(C)C1C2 (single isomer, unassigned) [Example 2490]

Ki (human thrombin) | Ki (human factor Xa) | Ki (human factor VIIa) | Structure (SMILES)
< 500 nM | < 500 nM | 500 to 50000 nM | CC1(C)C2CC3OB([C@H](CCCNC(=N)N)NC(=O)Cn4nc(Cc5ccccc5)nc4-c4cccc([N+](=O)[O-])c4)OC3(C)C1C2 (single isomer, unassigned) [Example 2491]
< 500 nM | – | – | CC1(C)C2CC3OB([C@H](CCCCN)NC(=O)Cn4cnc(CCc5ccccc5)n4)OC3(C)C1C2 (single isomer, unassigned) [Example 2752]
< 500 nM | 500 to 50000 nM | < 500 nM | CC1(C)C2CC3OB([C@H](CCCCN)NC(=O)Cn4nc(CCc5ccccc5)nc4CO)OC3(C)C1C2 (single isomer, unassigned) [Example 2780]
< 500 nM | 500 to 50000 nM | – | CC1(C)C2CC3OB([C@H](CCCCN)NC(=O)Cc4nc(Cc5ccccc5)n(Cc5ccccc5)n4)OC3(C)C1C2 (single isomer, unassigned) [Example 3349]
< 500 nM | < 500 nM | – | CC(C)(C)OC(=O)Nc1cccc(-c2ccc(C(=O)N[C@@H](CCCNC(=N)N)B3OC4CC5CC(C5(C)C)C4(C)O3)s2)c1 (single isomer, unassigned) [Example 5426]
< 500 nM | < 500 nM | – | CC(C)(C)OC(=O)Nc1cccc(-c2ccc(C(=O)N[C@@H](CCCNC(=N)N)B3OC4CC5CC(C5(C)C)C4(C)O3)o2)c1 (single isomer, unassigned) [Example 5529]
< 500 nM | 500 to 50000 nM | – | CC1(C)[C@@H]2C[C@H]3OB([C@H](CCCNC(=N)N)NC(=O)c4ccc(-c5ccccc5)cc4)O[C@@]3(C)[C@H]1C2 [Example 1, N^1-(4-Phenylbenzoyl)boroarginine (+)-Pinanediol, Bisulfite]
< 500 nM | – | – | Cc1cc(-c2ccccc2)ccc1C(=O)N[C@@H](CCCNC(=N)N)B1O[C@@H]2C[C@@H]3C[C@@H](C3(C)C)[C@]2(C)O1 [Example 29]
< 500 nM | < 500 nM | – | Cc1cc(-c2ccccc2)ccc1C(=O)N[C@@H](CCCNC(=N)N)B(O)O [Example 129]
< 500 nM | – | < 500 nM | CC(C)(C)NS(=O)(=O)c1ccccc1-c1ccc(C(=O)N[C@@H](CCCNC(=N)N)B2O[C@@H]3C[C@@H]4C[C@@H](C4(C)C)[C@]3(C)O2)c([N+](=O)[O-])c1 [Example 288]
< 500 nM | – | – | CC1(C)[C@@H]2C[C@H]3OB([C@H](CCCCN)NC(=O)Cn4ncnc4Cc4ccccc4)O[C@@]3(C)[C@H]1C2 [Example 887]
< 500 nM | – | – | CC1(C)[C@@H]2C[C@H]3OB([C@H](CCCCN)NC(=O)Cn4nc(-c5ccccc5)nc4Cc4ccccc4)O[C@@]3(C)[C@H]1C2 [Example 920]
< 500 nM | – | – | NCCCC[C@H](NC(=O)Cn1ncnc1Cc1ccccc1)B(O)O [Example 977]
< 500 nM | – | – | NCCCC[C@H](NC(=O)Cn1ncnc1CCc1ccccc1)B(O)O [Example 1521]
< 500 nM | – | 500 to 50000 nM | NCCCC[C@H](NC(=O)Cn1nc(CCc2ccccc2)nc1CCc1ccccc1)B(O)O [Example 1557]
< 50000 nM | – | – | NCCCC[C@H](NC(=O)Cn1cnc(CCc2ccccc2)n1)B(O)O [Example 2837]
< 50000 nM | 500 to 50000 nM | – | CC1(C)[C@@H]2C[C@H]3OB([C@H](CCCCN)NC(=O)c4ccc(-c5ccccc5)nc4)O[C@@]3(C)[C@H]1C2 [Example 4064]
< 50000 nM | 500 to 50000 nM | – | NCCCC[C@H](NC(=O)c1ccc(-c2ccccc2)nc1)B(O)O [Example 4065]
